Among the test systems are CAKI-1 renal; EKVX NSCLC; MALME-3M melanoma; MCF7 breast; MDA-MB-231 breast; NCI-H23 lung; PC-3 prostate; RPMI-8226 leukemia; SF-295 CNS; SK-OV-3 ovarian.
What all share (experiment): NCI tumour cell line growth inhibition, 48 h

Several values for one entry are separate records, joined by “and”; a condition that tells them apart may be missing. Equal values may be shown once.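 Compound exposure: 48 hours, 5 concentrations, 96-well plates. GI50 = concentration required for 50% inhibition of growth. TGI: total growth inhibition.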 Bounds are passed on as bounds.

For the compound `CN(Cc1ccc(Cl)cc1)c1ccc(CO)c(Cl)c1`, the GI50 with CAKI-1 renal was 1.43 µM; in the assay with EKVX NSCLC, 13.5 µM; with MALME-3M melanoma, 13.4 µM; in the assay on MCF7 breast it was 1.34 µM; in the assay with MDA-MB-231 breast, 11 µM; with NCI-H23 lung it was 5.98 µM. Further, the GI50 in the assay with PC-3 prostate was 12.8 µM; in the assay with RPMI-8226 leukemia, 5.51 µM; with SF-295 CNS, 2.48 µM; in the assay on SK-OV-3 ovarian it was 5.18 µM. Moreover, the TGI was determined as 12 µM in the assay with CAKI-1 renal; 35.3 µM with EKVX NSCLC; 29.2 µM in the assay with MALME-3M melanoma; 12.5 µM in the assay on MCF7 breast; 29.9 µM with MDA-MB-231 breast; 23 µM with NCI-H23 lung. In addition, the TGI in the assay with PC-3 prostate is 31 µM; in the assay with RPMI-8226 leukemia, over 52.3 µM; in the assay on SF-295 CNS, 16 µM; in the assay with SK-OV-3 ovarian, 16.9 µM.

With `CCC1C(=O)OCc2c1cc1n(c2=O)Cc2cc3ccccc3nc2-1` (configuration not stated), the TGI was 16.3 µM in the assay with CAKI-1 renal; over 100 µM with EKVX NSCLC; over 100 µM in the assay on MALME-3M melanoma; over 48.6 µM in the assay on MCF7 breast; over 100 µM in the assay on MDA-MB-231 breast; 10.6 µM with NCI-H23 lung. The TGI with PC-3 prostate was over 100 µM; with RPMI-8226 leukemia, over 100 µM; in the assay on SF-295 CNS, over 33.7 µM; with SK-OV-3 ovarian, over 100 µM.

With `COc1cc(C(=O)N2N=C(c3ccc(S(C)(=O)=O)cc3)CC2c2ccco2)cc(OC)c1OC` (configuration not stated), the GI50 was 4.94 µM in the assay on CAKI-1 renal; 21.3 µM in the assay with EKVX NSCLC; 5.01 µM in the assay on MALME-3M melanoma; 2.89 µM in the assay with MCF7 breast; 11.2 µM in the assay with MDA-MB-231 breast; 15.2 µM in the assay on NCI-H23 lung. For the same compound, the GI50 in the assay with PC-3 prostate was 2.93 µM; in the assay with RPMI-8226 leukemia, 0.647 µM; in the assay on SF-295 CNS, 3.04 µM; with SK-OV-3 ovarian it was 4.9 µM. The TGI in the assay with CAKI-1 renal was over 90.8 µM; with EKVX NSCLC, over 100 µM; in the assay with MALME-3M melanoma, over 100 µM; in the assay on MCF7 breast it was over 100 µM; with MDA-MB-231 breast it was over 100 µM; in the assay on NCI-H23 lung, over 100 µM. In addition, the TGI is over 100 µM with PC-3 prostate, 4.36 µM with RPMI-8226 leukemia, over 100 µM with SF-295 CNS and over 100 µM in the assay with SK-OV-3 ovarian.

Turning to `CCOC(=O)/C(=N\OC)C(O)C(F)(F)F` (configuration not stated), the TGI in the assay on CAKI-1 renal, in the assay with EKVX NSCLC, with MALME-3M melanoma, in the assay on MCF7 breast, in the assay with MDA-MB-231 breast and in the assay with NCI-H23 lung was over 100 µM throughout. Also, the TGI in the assay on PC-3 prostate, in the assay with RPMI-8226 leukemia, with SF-295 CNS and with SK-OV-3 ovarian was over 100 µM in each case.

As for `COc1cc(-n2cc(-c3ccc(F)cc3)nc2SCc2ccccc2)cc(OC)c1OC`, the GI50 in the assay with CAKI-1 renal, in the assay with EKVX NSCLC, in the assay with MALME-3M melanoma, with MCF7 breast, with MDA-MB-231 breast and in the assay on NCI-H23 lung was over 100 µM each time. The GI50 with PC-3 prostate is 9.48 µM; in the assay on RPMI-8226 leukemia it was over 100 µM; with SF-295 CNS it was over 100 µM; in the assay on SK-OV-3 ovarian it was over 100 µM. Besides, the TGI in the assay with CAKI-1 renal, in the assay on EKVX NSCLC, with MALME-3M melanoma, in the assay with MCF7 breast, in the assay with MDA-MB-231 breast and in the assay with NCI-H23 lung was over 100 µM each time. Besides, the TGI with PC-3 prostate, with RPMI-8226 leukemia, in the assay on SF-295 CNS and in the assay on SK-OV-3 ovarian was over 100 µM in each case.

For `COc1ccc2c(c1O)C13CCN(C)C(C2)C1CCC1(C3)OCCO1` (configuration not stated), the TGI in the assay with CAKI-1 renal, in the assay with EKVX NSCLC, with MALME-3M melanoma, in the assay on MCF7 breast, with MDA-MB-231 breast and in the assay on NCI-H23 lung was over 100 µM throughout. The TGI with PC-3 prostate, in the assay with RPMI-8226 leukemia, with SF-295 CNS and in the assay with SK-OV-3 ovarian was over 100 µM each time.

`COC(=O)C1=C(C)NC(C)=C(C(=O)OC)C1/C=C(\Cl)c1ccc(Cl)c(Cl)c1`: the GI50 in the assay on CAKI-1 renal was 13.7 µM; in the assay on EKVX NSCLC it was 10.7 µM; with MALME-3M melanoma it was 17.5 µM; with MCF7 breast, 11.4 µM; in the assay on MDA-MB-231 breast, 11.9 µM; with NCI-H23 lung, 16.8 µM. The GI50 with PC-3 prostate was 10.8 µM; in the assay with RPMI-8226 leukemia, 1.8 µM; in the assay with SF-295 CNS, 6.26 µM; with SK-OV-3 ovarian, 21.1 µM. In addition, the TGI in the assay with CAKI-1 renal turned out to be 27.2 µM; with EKVX NSCLC it was 24.9 µM; with MALME-3M melanoma, 35.9 µM; in the assay on MCF7 breast, 33.5 µM; with MDA-MB-231 breast it was 25.3 µM; in the assay with NCI-H23 lung it was 31 µM. Besides, the TGI with PC-3 prostate is 23.1 µM; in the assay on RPMI-8226 leukemia, 13.7 µM; in the assay on SF-295 CNS, 21.6 µM; with SK-OV-3 ovarian it was 49 µM.

Turning to `S=C(N/N=C(/c1ccccc1)c1ccccn1)N1CCCCC1`, the GI50 is 0.107 µM in the assay with CAKI-1 renal; 1.21 µM in the assay with EKVX NSCLC; 0.00735 µM with MALME-3M melanoma; under 0.001 µM in the assay on MDA-MB-231 breast; under 0.001 µM in the assay on PC-3 prostate; under 0.001 µM in the assay with RPMI-8226 leukemia. The values for the GI50 in the assay on SF-295 CNS and with SK-OV-3 ovarian were 0.188 µM and under 0.001 µM, respectively. Further, the TGI in the assay with CAKI-1 renal is 1.66 µM and 2.33 µM; in the assay with EKVX NSCLC, 2.45 µM and 0.558 µM; in the assay with MALME-3M melanoma it was 2.27 µM and 2.2 µM; in the assay on MCF7 breast, 4.12 µM; in the assay with MDA-MB-231 breast, 2.42 µM and 2.21 µM; in the assay on NCI-H23 lung, 1.74 µM. In addition, the TGI was 1.6 µM and 4.08 µM with PC-3 prostate; 1.75 µM and 2.11 µM in the assay on SF-295 CNS; 2.36 µM and 1.24 µM with SK-OV-3 ovarian.

On to `CC(=O)CCc1ccc(OC2OC(COC(=O)c3cc(O)c(O)c(O)c3)C(O)C(O)C2OC(=O)/C=C/c2ccccc2)cc1` (configuration not stated), for which the GI50 with CAKI-1 renal is 29.7 µM; with EKVX NSCLC, 40.3 µM; in the assay on MALME-3M melanoma it was 26.8 µM; in the assay on MCF7 breast, 22.7 µM; in the assay with MDA-MB-231 breast it was 19.6 µM; in the assay on NCI-H23 lung, 17.5 µM. Moreover, the GI50 with PC-3 prostate is 33.4 µM; in the assay with RPMI-8226 leukemia, 23.7 µM; in the assay with SF-295 CNS it was 24.5 µM; in the assay with SK-OV-3 ovarian, 29.8 µM. Moreover, the TGI was over 100 µM in the assay on CAKI-1 renal; 72 µM in the assay on EKVX NSCLC; 46.2 µM in the assay with MALME-3M melanoma; 47.1 µM with MCF7 breast; 44.5 µM in the assay with MDA-MB-231 breast; 38.6 µM with NCI-H23 lung. Moreover, the TGI with PC-3 prostate was over 100 µM; in the assay with RPMI-8226 leukemia, 85.3 µM; in the assay with SF-295 CNS, 52.2 µM; in the assay with SK-OV-3 ovarian, 68.5 µM.

These data come from PubChem BioAssay (NCI).
